Measurements as given in ChEMBL document CHEMBL4130368, “Thienopyrimidine derivatives exert their anticancer efficacy via apoptosis induction, oxidative stress and mitotic catastrophe” (Eur J Med Chem, 2017).
The source made the active and inactive calls. No cut-off for these calls is given here.

Experiments:
[1] = Antiproliferative activity against human GBM10 cells after 72 hrs by MTT assay; type: functional, cell-based; conditions: GBM10, 72 h
[2] = Selectivity index, ratio of IC50 for CHO cells to IC50 for human A2780 cells; type: toxicity; conditions: Chinese hamster (CHO cells), CHO cells versus A2780 cells, read-out: Ratio IC50
HCT-116 [3] = assay: Cell cycle arrest in human HCT116 cells assessed as accumulation at G2 phase at 1 uM measured after overnight incubation by propidium iodide staining-based flow cytometry (reference value: 24%); type: functional
2008 [4] = assay: Cell cycle arrest in human OV2008 cells assessed as accumulation at S phase at 1 uM measured after overnight incubation by propidium iodide staining-based flow cytometry (reference value: 10.8%); type: functional
2008 [5] = assay: Cell cycle arrest in human OV2008 cells assessed as accumulation at G1 phase at 2 uM measured after overnight incubation by propidium iodide staining-based flow cytometry (reference value: 52.6%); type: functional
HCT-116 [6] = assay: Induction of cellular oxidative stress in human HCT116 cells assessed as increase in ROS levels at 0.5 to 4 uM after 48 hrs by DCFDA dye-based fluorescence microscopic method; type: functional, cell-based
HCT-116 [7] = assay: Induction of mitotic catastrophe in human HCT116 cells assessed as formation of large with flattened cells at 0.5 to 2 uM measured after overnight incubation by DAPI-staining based microscopy; type: functional, cell-based
2008 [8] = assay: Induction of apoptosis in human OV2008 cells assessed as late apoptotic cells at 1 uM measured after overnight incubation by mitotracker red/alexa fluor-488 Annexin V staining-based flow cytometry (reference value: 0.255%); type: functional
2008 [9] = assay: Induction of apoptosis in human OV2008 cells assessed as viable cells at 2 uM measured after overnight incubation by mitotracker red/alexa fluor-488 Annexin V staining-based flow cytometry (reference value: 80.5%); type: functional; conditions: read-out: Activity

## COc1ccc(-c2nc(O)c3c4c(sc3n2)CCCC4)cc1
[1]
  IC50: 800 nM
[2]
  selectivity ratio: 17 to 28
HCT-116 [3]
  Activity: 47.1%
2008 [4]
  Activity: 20.4%
2008 [5]
  Activity: 13.6%
HCT-116 [6]
  Activity: Active
HCT-116 [7]
  Activity: Active
2008 [8]
  Activity: 0.245%
2008 [9]
  viability at 2 µM: 73.9%
